Consider two molecules from US20250288632A1, “Viral Entry Inhibitors Derived From Botanicals” (priority 2022, published 2025).

Data set [1] concerns wild type SARS-CoV-2 pseudovirion. Put plainly: microbe, parasite or virus in culture. As to conditions: Severe acute respiratory syndrome coronavirus 2, read-out: EC50 % Inhibition (μg/mL). The class given is cell-based.
A further data set deals with SARS-CoV2 (Caco2). In words: microbe, parasite or virus in culture. As to conditions: Severe acute respiratory syndrome coronavirus 2, Caco-2, 72 h.
A short description of data set [2]: Cytotoxicity assay measuring cell proliferation in PBM cells. As to conditions: remdesivir. The format is cell-based. How it is done:
Numbers in parentheses indicate percent inhibition at the highest concentration tested. Cytotoxicity assays measuring the cell proliferation in PBM and Vero cells were performed in parallel to the antiviral assays.

The subject of a further data set is SARS-CoV2 (Vero). In words: microbe, parasite or virus in culture. The class given is cell-based, SARS-CoV-2. As to conditions: Severe acute respiratory syndrome coronavirus 2, Vero, 48 h.
Another data set has as its system SARS-CoV2 (Calu3). Put plainly: microbe, parasite or virus in culture. The class given is cell-based, SARS-CoV-2. The following applies: Severe acute respiratory syndrome coronavirus 2, Calu-3, 72 h.

Values after ≈ are worked out from the molar mass of the structure shown.

Consider `CCN(CCO)CCCC(C)Nc1ccnc2cc(Cl)ccc12` (centres unmarked) [Hydroxy cholorquine], for which the EC50 in data set [1] is 1.14 µg/mL (≈ 3.39 µM).

As for `CCC(CC)COC(=O)[C@H](C)N[P@](=O)(OC[C@H]1O[C@@](C#N)(c2ccc3c(N)ncnn23)[C@H](O)[C@@H]1O)Oc1ccccc1` [Remdesivir], the EC50 in the data set with SARS-CoV2 (Caco2) (read-out: Anti-SARS-CoV2 (Caco2) EC50) worked out at 0.1 µM; in the data set on SARS-CoV2 (Vero) (read-out: Anti-SARS-CoV2 (Vero) EC50), 0.6 µM; with SARS-CoV2 (Calu3) (read-out: Anti-SARS-CoV2 (Calu3) EC50), 0.002 µM. The EC90 in the data set on SARS-CoV2 (Caco2) (read-out: Anti-SARS-CoV2 (Caco2) EC90) came out at 0.4 µM; with SARS-CoV2 (Vero) (read-out: Anti-SARS-CoV2 (Vero) EC90) it was 1.6 µM; in the data set with SARS-CoV2 (Calu3) (read-out: Anti-SARS-CoV2 (Calu3) EC90), 0.02 µM. The molecule further returned a CC50 in data set [2] of 1.2 µM.

A word on the EC90: it is the concentration needed for an effect of 90%. By CC50 is commonly meant the concentration at which the toxic effect on the cells reaches its halfway point. Read a low CC50 as harm at low concentration.
